Measurements taken from patent publication US11000033B2, “Ketone or oxime compound, and herbicide” (NISSAN CHEMICAL CORPORATION, priority 2014, dated 2021).

What was measured:
[1] = system: Monochoria vaginalis; assay: Test Example 2: herbicidal activity, application during weed generation in submerged conditions (symbol C); assay type: in vivo; conditions: Table 23, grade 0-5 by criteria of Test Example 1
Outline: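 Paddy pot test, submerged (4 cm water), alluvial soil, mixed sowing; greenhouse 25–30° C. Emulsion formulation diluted to predetermined rate, applied onto floodwater at 1–2 leaf stage. Visual herbicidal rating at 3 wk post-treatment.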

[2] = system: Echinochloa crus-galli var. crus-galli; assay: Test Example 4: herbicidal effect by soil treatment (symbol H); assay type: in vivo
Outline: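 Seeds were sown in sterilized diluvial soil, covered with about 1.5 cm of soil, and the soil surface was sprayed with a water-diluted emulsion of the compound at a predetermined rate. Plants grew in a greenhouse at 25° C. to 30° C.; effects were scored visually 3 weeks after application.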

[3] = system: Echinochloa crus-galli var. crus-galli; assay: Test Example 5: herbicidal effect by foliage application, plastic box (symbol H); assay type: in vivo; conditions: 3 weeks after application
Outline: (§1)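 Effect is rated 3 weeks after a foliar spray of water-diluted emulsion concentrate at a predetermined herbicide amount. Plants had grown 14 days in a 25° C. to 30° C. greenhouse from seed in sterilized diluvial soil.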

[4] = system: Abutilon theophrasti; assay: Test Example 5: herbicidal effect by foliage application, plastic box (symbol M); assay type: in vivo; conditions: 3 weeks after application
Outline: as §1

[5] = system: Stellaria media; assay: Test Example 5: herbicidal effect by foliage application, plastic box (symbol P); assay type: in vivo; conditions: 3 weeks after application
Outline: as §1

[6] = application herbicide amount 320 g/ha
[7] = application herbicide amount 269 g/ha

| Compound | Herbicidal effect grade, C: Monochoria vaginalis [1, 6] | H: Echinochloa crus-galli var. crus-galli, herbicidal effect grade ([2]; 320 g/ha) | H: Echinochloa crus-galli var. crus-galli, herbicidal effect (criteria 0-5) ([3]; 320 g/ha) | M: Abutilon theophrasti, herbicidal effect (criteria 0-5) ([4]; 320 g/ha) | P: Stellaria media, herbicidal effect (criteria 0-5) ([5]; 320 g/ha) | H: Echinochloa crus-galli var. crus-galli, herbicidal effect grade ([3]; 320 g/ha) | M: Abutilon theophrasti, herbicidal effect grade ([4]; 320 g/ha) | P: Stellaria media, herbicidal effect grade ([5]; 320 g/ha) | also measured |
| --- | --- | --- | --- | --- | --- | --- | --- | --- | --- |
| CON=C(CC1CC(O)=C(c2c(C)cc(C)cc2C)C1=O)C(F)(F)F (stereo not shown) [1-097] | 0 (Herbicidal ratio of 5% or lower (almost no effect)) | 2 (Herbicidal ratio of 20% or higher and lower than 40%) | 5 (Herbicidal ratio of 90% or more (almost completely withered)) | 3 (Herbicidal ratio of 40% or higher and lower than 70%) | 0 (Herbicidal ratio of 5% or lower (almost no effect)) |  |  |  | melting point: 115 to 118 °C |
| CC(=O)CC1CC(O)=C(c2c(C)cc(C)cc2C)C1=O (stereo not shown) [2-001, 3-hydroxy-2-mesityl-5-(2-oxopropyl)cyclopent-2-enone] |  |  |  |  |  |  |  |  | Herbicidal effect grade, C: Monochoria vaginalis ([1]; application herbicide amount 102 g/ha): 0 (Herbicidal ratio of 5% or lower (almost no effect)); H: Echinochloa crus-galli var. crus-galli, herbicidal effect grade ([2]; 102 g/ha): 5 (Herbicidal ratio of 90% or more (almost completely withered)); H: Echinochloa crus-galli var. crus-galli, herbicidal effect grade ([3]; 102 g/ha): 5 (Herbicidal ratio of 90% or more (almost completely withered)); M: Abutilon theophrasti, herbicidal effect grade ([4]; 102 g/ha): 1 (Herbicidal ratio of 5% or higher and lower than 20%); P: Stellaria media, herbicidal effect grade ([5]; 102 g/ha): 3 (Herbicidal ratio of 40% or higher and lower than 70%); melting point: 183 to 185 °C |
| CCCON=C(C)CC1CC(O)=C(c2c(C)cc(C)cc2C)C1=O (stereo not shown) [1-123] | 2 (Herbicidal ratio of 20% or higher and lower than 40%) | 5 (Herbicidal ratio of 90% or more (almost completely withered)) | 5 (Herbicidal ratio of 90% or more (almost completely withered)) | 4 (Herbicidal ratio of 70% or higher and lower than 90%) | 3 (Herbicidal ratio of 40% or higher and lower than 70%) |  |  |  | melting point: 123 to 126 °C |
| COC(=O)C(C(=O)C1CC1)C1CC(O)=C(c2c(C)cc(Br)cc2C)C1=O (mixture of isomers) [10-002] | 0 (Herbicidal ratio of 5% or lower (almost no effect)) |  |  |  |  | 5 (Herbicidal ratio of 90% or more (almost completely withered)) | 0 (Herbicidal ratio of 5% or lower (almost no effect)) | 0 (Herbicidal ratio of 5% or lower (almost no effect)) | Herbicidal effect grade, H: Echinochloa crus-galli var. crus-galli [2, 6]: 4 (Herbicidal ratio of 70% or higher and lower than 90%) |
| CON=C(C)CC1CC(OC(C)=O)=C(c2c(C)cc(C)cc2C)C1=O (stereo not shown) [1-005] | 4 (Herbicidal ratio of 70% or higher and lower than 90%) |  |  |  |  | 5 (Herbicidal ratio of 90% or more (almost completely withered)) | 4 (Herbicidal ratio of 70% or higher and lower than 90%) | 4 (Herbicidal ratio of 70% or higher and lower than 90%) | H (Echinochloa crus-galli var. crus-galli) herbicidal effect grade [2, 6]: 5 (Herbicidal ratio of 90% or more (almost completely withered)) |
| CC(CC1CC(O)=C(c2c(C)cc(C)cc2C)C1=O)=NOCC(N)=O (stereo not shown) [1-124] | 0 (Herbicidal ratio of 5% or lower (almost no effect)) | 1 (Herbicidal ratio of 5% or higher and lower than 20%) | 5 (Herbicidal ratio of 90% or more (almost completely withered)) | 0 (Herbicidal ratio of 5% or lower (almost no effect)) | 2 (Herbicidal ratio of 20% or higher and lower than 40%) |  |  |  |  |
| CCC(=O)CC1CC(O)=C(c2c(C)cc(Br)cc2OC)C1=O (racemic) [14-002] | 0 (Herbicidal ratio of 5% or lower (almost no effect)) |  |  |  |  | 5 (Herbicidal ratio of 90% or more (almost completely withered)) | 4 (Herbicidal ratio of 70% or higher and lower than 90%) | 0 (Herbicidal ratio of 5% or lower (almost no effect)) | H: Echinochloa crus-galli var. crus-galli, herbicidal effect grade [2, 6]: 5 (Herbicidal ratio of 90% or more (almost completely withered)) |
| CC(=O)C(C)C1CC(O)=C(c2c(C)cc(C)cc2C)C1=O (stereo not shown) [2-005] |  |  |  |  |  |  |  |  | Herbicidal effect grade, C: Monochoria vaginalis [1, 7]: 0 (Herbicidal ratio of 5% or lower (almost no effect)); H: Echinochloa crus-galli var. crus-galli, herbicidal effect grade [2, 7]: 5 (Herbicidal ratio of 90% or more (almost completely withered)); H: Echinochloa crus-galli var. crus-galli, herbicidal effect grade ([3]; 269 g/ha): 5 (Herbicidal ratio of 90% or more (almost completely withered)); M: Abutilon theophrasti, herbicidal effect grade ([4]; 269 g/ha): 0 (Herbicidal ratio of 5% or lower (almost no effect)); P: Stellaria media, herbicidal effect grade ([5]; 269 g/ha): 0 (Herbicidal ratio of 5% or lower (almost no effect)) |
| CC(CC1CC(O)=C(c2c(C)cc(-c3ccc(Cl)cc3)cc2C)C1=O)=NOCC(F)(F)F (stereo not shown) [9-024] | 1 (Herbicidal ratio of 5% or higher and lower than 20%) |  |  |  |  | 5 (Herbicidal ratio of 90% or more (almost completely withered)) | 3 (Herbicidal ratio of 40% or higher and lower than 70%) | 4 (Herbicidal ratio of 70% or higher and lower than 90%) | Herbicidal effect grade, H: Echinochloa crus-galli var. crus-galli [2, 6]: 5 (Herbicidal ratio of 90% or more (almost completely withered)) |
| CON=C(C)CC1CC(OC(=O)c2nc(C)sc2C)=C(c2c(C)cc(C)cc2C)C1=O (stereo not shown) [1-101] | 2 (Herbicidal ratio of 20% or higher and lower than 40%) | 5 (Herbicidal ratio of 90% or more (almost completely withered)) | 5 (Herbicidal ratio of 90% or more (almost completely withered)) | 5 (Herbicidal ratio of 90% or more (almost completely withered)) | 3 (Herbicidal ratio of 40% or higher and lower than 70%) |  |  |  |  |
| CON=C(CC1CC(O)=C(c2c(C)cc(C)cc2C)C1=O)c1ccc(F)cc1 (stereo not shown) [1-133] | 0 (Herbicidal ratio of 5% or lower (almost no effect)) | 4 (Herbicidal ratio of 70% or higher and lower than 90%) | 4 (Herbicidal ratio of 70% or higher and lower than 90%) | 0 (Herbicidal ratio of 5% or lower (almost no effect)) | 3 (Herbicidal ratio of 40% or higher and lower than 70%) |  |  |  |  |
| CON=C(C)CC1CC(OC(=O)C(CSC)=NOC)=C(c2c(C)cc(C)cc2C)C1=O (stereo not shown) [1-098] | 3 (Herbicidal ratio of 40% or higher and lower than 70%) | 5 (Herbicidal ratio of 90% or more (almost completely withered)) | 5 (Herbicidal ratio of 90% or more (almost completely withered)) | 4 (Herbicidal ratio of 70% or higher and lower than 90%) | 3 (Herbicidal ratio of 40% or higher and lower than 70%) |  |  |  |  |
| CC(CC1CC(O)=C(c2c(C)cc(C)cc2C)C1=O)=NOCc1ccc(C(F)(F)F)cc1 (stereo not shown) [1-138] | 2 (Herbicidal ratio of 20% or higher and lower than 40%) | 5 (Herbicidal ratio of 90% or more (almost completely withered)) | 5 (Herbicidal ratio of 90% or more (almost completely withered)) | 3 (Herbicidal ratio of 40% or higher and lower than 70%) | 1 (Herbicidal ratio of 5% or higher and lower than 20%) |  |  |  |  |
| CC(CC1CC(OC(=O)COc2ccccc2)=C(c2c(C)cc(-n3cc(Cl)cn3)cc2C)C1=O)=NOCC(F)(F)F (stereo not shown) [9-012] | 2 (Herbicidal ratio of 20% or higher and lower than 40%) |  |  |  |  | 5 (Herbicidal ratio of 90% or more (almost completely withered)) | 1 (Herbicidal ratio of 5% or higher and lower than 20%) | 4 (Herbicidal ratio of 70% or higher and lower than 90%) | Herbicidal effect grade, H: Echinochloa crus-galli var. crus-galli [2, 6]: 5 (Herbicidal ratio of 90% or more (almost completely withered)) |
